# Measured values: ChEMBL document CHEMBL1201862, “PubChem BioAssay data set” (2004)
#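 Five concentrations, 48 hours, 96-well plates. GI50 = concentration required for 50% inhibition of growth.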 The source made the active and inactive calls. Rule as the data show it: active = GI50 up to about 1.1 µM and inactive = higher.
# Columns and labels:
# Assay in all cases: NCI anticancer screen, dose series, 48 h
# [1] = tested on: HOP-92
# [2] = tested on: RXF 393
# [3] = tested on: OVCAR-4
# [4] = tested on: NCI-H226
# [5] = tested on: Malme-3M
# [6] = tested on: UACC-257
# [7] = tested on: A549
# [8] = tested on: KM12
# [9] = tested on: NCI-H522
# [10] = tested on: OVCAR-8
# [11] = tested on: OVCAR-5
# [12] = tested on: 786-0
# [13] = tested on: SF-268
# [14] = tested on: HCT-15
# [15] = tested on: SK-MEL-28
# [16] = tested on: MOLT-4
# [17] = tested on: HT-29
# [18] = tested on: BT-549
# [19] = tested on: EKVX
# [20] = tested on: MDA-N
Structure (SMILES),GI50 [1],GI50 [2],GI50 [3],GI50 [4],GI50 [5],GI50 [6],GI50 [7],GI50 [8],GI50 [9],GI50 [10],GI50 [11],GI50 [12],GI50 [13],GI50 [14],GI50 [15],GI50 [16],GI50 [17],GI50 [18],GI50 [19],GI50 [20]
CN1CSC(=S)N(c2c3ccccc3nc3ccc(Br)cc23)C1,16.3 µM (inactive),11.9 µM (inactive),7.11 µM (inactive),10 µM (inactive),16.7 µM (inactive),12.1 µM (inactive),6.22 µM (inactive),7.11 µM (inactive),4.4 µM (inactive),7.93 µM (inactive),13.7 µM (inactive),4.7 µM (inactive),9.64 µM (inactive),6.4 µM,16.9 µM (inactive),0.783 µM (active),5.42 µM (inactive),15.4 µM (inactive),12.9 µM (inactive),10.4 µM (inactive)
Nc1ncc(Br)c(NCC2(CO)CCC2)n1,56.1 µM (inactive),> 100 µM (inactive),> 100 µM (inactive),66.8 µM (inactive),> 100 µM (inactive),> 100 µM (inactive),> 100 µM (inactive),> 100 µM (inactive),92 µM (inactive),> 100 µM (inactive),20.7 µM (inactive),> 100 µM (inactive),> 100 µM (inactive),> 100 µM,> 100 µM (inactive),80 µM (inactive),> 100 µM (inactive),> 100 µM (inactive),58.5 µM (inactive),> 100 µM (inactive)
Cc1cc(C)nc(NS(=O)(=O)c2ccc(NC(=O)c3ccc4nc5ccccc5c(Nc5ccc(S(=O)(=O)N=C(N)N)cc5)c4c3)cc2)n1,32.4 µM (inactive),> 100 µM (inactive),> 100 µM (inactive),> 100 µM (inactive),> 100 µM (inactive),> 100 µM (inactive),> 100 µM (inactive),> 100 µM (inactive),> 100 µM (inactive),> 100 µM (inactive),> 100 µM (inactive),> 100 µM (inactive),> 100 µM (inactive),> 100 µM,> 100 µM (inactive),> 100 µM (inactive),> 100 µM (inactive),> 100 µM (inactive),> 100 µM (inactive),> 100 µM (inactive)
C=C(C)CNCCN,> 100 µM (inactive),> 100 µM (inactive),> 100 µM (inactive),> 100 µM (inactive),> 100 µM (inactive),> 100 µM (inactive),> 100 µM (inactive),> 100 µM (inactive),> 100 µM (inactive),> 100 µM (inactive),> 100 µM (inactive),> 100 µM (inactive),> 100 µM (inactive),> 100 µM,> 100 µM (inactive),> 100 µM (inactive),> 100 µM (inactive),> 100 µM (inactive),> 100 µM (inactive),> 100 µM (inactive)
CC(CN(C)C)C(C#N)(c1ccccc1)c1ccccc1 (stereo not given),43.4 µM (inactive),> 100 µM (inactive),> 100 µM (inactive),> 100 µM (inactive),> 100 µM (inactive),> 100 µM (inactive),> 100 µM (inactive),> 100 µM (inactive),> 100 µM (inactive),> 100 µM (inactive),> 100 µM (inactive),> 100 µM (inactive),> 100 µM (inactive),> 100 µM,89.1 µM (inactive),> 100 µM (inactive),63.7 µM (inactive),> 100 µM (inactive),> 100 µM (inactive),> 100 µM (inactive)
